Source: US20100130522A1, “COMPOUNDS FOR INFLAMMATION AND IMMUNE-RELATED USES” (Synta Pharmaceuticals Corp., priority 2008, published 2010)

Key:
CRACM1/STIM1-CHOK1 = molecular target: T1, CRACM1/STIM1-CHOK1 (Homo sapiens, UniProt Q96D31); experiment: Patch clamp inhibition of ICRAC current in CRACM1/STIM1-CHOK1 cells; format: cell-based; conditions: 500 nM; given as activity class
T1 construct: Full length human Stim1, CracM1, CracM2 and CracM3 cDNA; Stim1 induced with doxycycline
Experimental: Manual patch clamp experiments are conducted in the tight-seal whole-cell configuration at room temperature (21-25° C.). Patch pipettes are fashioned from borosilicate glass capillary tubes and have resistances between 2-4 MΩ after filling with standard intracellular solution. High resolution current recordings are acquired with a computer-based patch clamp amplifier system (EPC-10, HEKA, Lambrecht, Germany). All voltages are corrected for a liquid junction potential of 10 mV between external and internal solutions with glutamate as the intracellular anion. Currents are filtered at 2.9 kHz and digitized at 10 μs intervals. Capacitive currents and series resistance are determined and corrected before each voltage ramp using the automatic capacitance compensation of the EPC-10.
Automated patch clamp experiments are conducted with the QPatch 16 (Sophion Bioscience, Ballerup, Denmark) at room temperature (21-25° C.). Immediately following the establishment of giga-seal whole-cell configuration, the cells membrane potential is clamped at 0 mV. Voltage ramps of 50 ms duration spanning the voltage range of −100 to +100 mV are then stimulated at a rate of 0.33 Hz. Currents are filtered at 2.9 kHz and digitized at 200 μs intervals. Capacitive currents and series resistance are determined and corrected before each voltage ramp using the automatic capacitance compensation.
In general, a whole cell patch clamp method is used to examine the effects of a compound of the invention on a channel(s) that mediates ICRAC. In such experiments, a baseline ICRAC measurement is established within the first 70 voltage ramps, or 140 seconds, for a patched cell. Then the cells are perfused with the compound to be tested and the effect of the compound on ICRAC is measured for at least an additional 440 to 500 seconds. A compound that modulates ICRAC (e.g., inhibits) is a compound that is useful in the invention for modulating CRAG ion channel activity.
Off-line analysis with the Heka PatchMaster software is used to separate the ICRAC membrane current from the cells basal background currents. In a typical recording, InsP3 stimulated ICRAC currents begin to develop in 6 to 12 seconds after whole cell is established. Therefore, the first 1-4 voltage ramps represent the basal membrane currents in the absence of ICRAC and the average value is subtracted from all subsequent traces. The current value at −80 mV for each ramp trace is then measured and plotted against time. The resulting current versus time data is exported into a Microsoft Excel spreadsheet. The % ICRAC inhibition in each cell is calculated by comparing the amount of current just prior to the compound perfusion to the amount of current after the cells has been perfused with the compound for 440-500 seconds. The IC50 value and Hill coefficient for each compound is estimated by fitting all the individual data points to a single-site Hill equation.
TREx™-CHO cells were transfected with human Stim1 (recombinant DNA in pcDNA4/TO/myc-His™ A with a myc epitope tag in the N-terminal) and either CracM1, CracM2 or CracM3 (recombinant DNA in pcDNA 3.1 with a HA epitope tag in the N-terminal). Stably expressing cells were selected by growing the transfected cells in antibiotics for two to three weeks. Individual cell clones were isolated via serial dilution. Full length human Stim1, CracM1, CracM2 and CracM3 cDNA, TREx™-CHO cells, pcDNA4/TO/myc-His™ A and pcDNA 3.1 were purchased from Invitrogen (Carlsbad, Calif.). All cells clones are grown in Ham's F-12 media supplemented with 10% fetal bovine serum, penicillin 100 U/ml, streptomycin 100 ? g/ml, Zeocin™ (200 ? g/ml), Geneticin (500 ? g/ml) and blasticidin (10 ? g/ml) in an atmosphere of 95% air/5% CO2. Stim1 expression was induced with doxycycline (1 ? g/ml) for 16-20 hrs. […]

[1] = test system: IL-2 production, Jurkat cells; experiment: Inhibition of IL-2 production in PHA-activated Jurkat cells (ELISA); format: cell-based; conditions: Homo sapiens, 1% FBS
Experimental: Jurkat cells were placed in a 96 well plate (0.5 million cells per well in 1% FBS medium), and then a test compound of this invention was added at different concentrations. After 10 minutes, the cells were activated with PHA (final concentration 2.5 μg/mL) and incubated for 20 hours at 37° C. under 5% CO2. The final volume was 200 μL. Following incubation, the cells were centrifuged, and the supernatants collected and stored at −70° C. prior to assaying for IL-2 production. A commercial ELISA kit (IL-2 Eli-pair, Diaclone Research, Besancon, France) was used to detect production of IL-2, from which dose response curves were obtained. The IC50 value was calculated as the concentration at which 50% of maximum IL-2 production after stimulation was inhibited versus a non-stimulation control.

T1 sequence (Q96D31 whole entry): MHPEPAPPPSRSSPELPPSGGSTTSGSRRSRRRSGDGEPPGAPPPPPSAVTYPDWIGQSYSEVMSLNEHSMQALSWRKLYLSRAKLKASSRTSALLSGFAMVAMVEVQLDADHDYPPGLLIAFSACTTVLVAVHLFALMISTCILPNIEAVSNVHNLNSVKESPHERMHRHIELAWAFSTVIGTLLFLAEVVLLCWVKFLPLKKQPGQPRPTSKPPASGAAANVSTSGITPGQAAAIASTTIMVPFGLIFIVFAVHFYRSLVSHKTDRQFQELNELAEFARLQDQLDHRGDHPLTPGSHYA

Cc1ccc(C#Cc2cccnc2)cc1-c1cnc(NC(=O)c2c(F)cccc2F)cn1 [Compound 1, 2,6-difluoro-N-(5-(2-methyl-5-(pyridin-3-ylethynyl)phenyl)-pyrazin-2-yl)benzamide]
inhibition at 0.5 µM (CRACM1/STIM1-CHOK1): 70 to 100% | IC50 ([1]; given as activity class): < 50 nM

Cc1ccc(C#Cc2cccnc2)cc1-c1ccc(NC(=O)c2c(F)cccc2F)cc1 [Compound 2, 2,6-difluoro-N-(2′-methyl-5′-(pyridin-3-ylethynyl)biphenyl-4-yl)benzamide]
inhibition at 0.5 µM (CRACM1/STIM1-CHOK1): 70 to 100% | IC50 ([1]; given as activity class): < 50 nM

Cc1ccc(Nc2ccccn2)cc1-c1ccc(NC(=O)c2c(F)cccc2F)cc1 [Compound 3, 2,6-difluoro-N-(2′-methyl-5′-(pyridin-2-ylamino)biphenyl-4-yl)benzamide]
inhibition at 0.5 µM (CRACM1/STIM1-CHOK1): 50 to 70% | IC50 ([1]; given as activity class): < 50 nM

O=C(Nc1ccc(-c2cc(Oc3ccccn3)ccc2Cl)cc1)c1c(F)cccc1F [Compound 4, N-(2′-chloro-5′-(pyridin-2-yloxy)biphenyl-4-yl)-2,6-difluorobenzamide]
inhibition at 0.5 µM (CRACM1/STIM1-CHOK1): 70 to 100% | IC50 ([1]; given as activity class): < 50 nM

O=C(Nc1ccc(-c2cc(Oc3ccccn3)ccc2Cl)cn1)c1c(F)cccc1F [Compound 5, N-(5-(2-chloro-5-(pyridin-2-yloxy)phenyl)pyridin-2-yl)-2,6-difluorobenzamide]
inhibition at 0.5 µM (CRACM1/STIM1-CHOK1): 70 to 100% | IC50 ([1]; given as activity class): < 50 nM

Cc1ccc(Oc2cccnc2)cc1-c1ccc(NC(=O)c2c(F)cccc2F)cc1 [Compound 6, 2,6-difluoro-N-(2′-methyl-5′-(pyridin-3-yloxy)biphenyl-4-yl)benzamide]
inhibition at 0.5 µM (CRACM1/STIM1-CHOK1): 70 to 100% | IC50 ([1]; given as activity class): < 50 nM

Cc1ccc(Oc2cccnc2)cc1-c1ccc(NC(=O)c2c(F)cccc2F)nc1 [Compound 7, 2,6-difluoro-N-(5-(2-methyl-5-(pyridin-3-yloxy)phenyl)-pyridin-2-yl)benzamide]
inhibition at 0.5 µM (CRACM1/STIM1-CHOK1): 70 to 100% | IC50 ([1]; given as activity class): < 50 nM

Cc1ccc(Oc2cccnc2)cc1-c1cnc(NC(=O)c2c(F)cccc2F)cn1 [Compound 8, 2,6-difluoro-N-(5-(2-methyl-5-(pyridin-3-yloxy)phenyl)-pyrazin-2-yl)benzamide]
inhibition at 0.5 µM (CRACM1/STIM1-CHOK1): 70 to 100% | IC50 ([1]; given as activity class): < 50 nM

Cc1ccc(Oc2ccccn2)cc1-c1ccc(NC(=O)c2c(F)cccc2F)nc1 [Compound 9, 2,6-difluoro-N-(5-(2-methyl-5-(pyridin-2-yloxy)phenyl)-pyridin-2-yl)benzamide]
inhibition at 0.5 µM (CRACM1/STIM1-CHOK1): 70 to 100% | IC50 ([1]; given as activity class): < 50 nM

Cc1cnc(Oc2ccc(Cl)c(-c3ccc(NC(=O)c4c(F)cccc4F)cc3)c2)s1 [Compound 10, N-(2′-chloro-5′-(5-methylthiazol-2-yloxy)biphenyl-4-yl)-2,6-difluorobenzamide]
inhibition at 0.5 µM (CRACM1/STIM1-CHOK1): 70 to 100% | IC50 ([1]; given as activity class): 50 to 100 nM

O=C(Nc1ccc(-c2cc(Oc3nccs3)ccc2Cl)cc1)c1c(F)cccc1F [Compound 11, N-(2′-chloro-5′-(thiazol-2-yloxy)biphenyl-4-yl)-2,6-difluorobenzamide]
inhibition at 0.5 µM (CRACM1/STIM1-CHOK1): 70 to 100% | IC50 ([1]; given as activity class): < 50 nM

O=C(Nc1ccc(-c2cc(Oc3nccs3)ccc2Cl)cn1)c1c(F)cccc1F [Compound 12, N-(5-(2-chloro-5-(thiazol-2-yloxy)phenyl)pyridin-2-yl)-2,6-difluorobenzamide]
inhibition at 0.5 µM (CRACM1/STIM1-CHOK1): 70 to 100% | IC50 ([1]; given as activity class): < 50 nM

Cc1ccc(OCc2ccccn2)cc1-c1ccc(NC(=O)c2c(F)cccc2F)cc1 [Compound 13, 2,6-difluoro-N-(2′-methyl-5′-(pyridin-2-ylmethoxy)-biphenyl-4-yl)benzamide]
inhibition at 0.5 µM (CRACM1/STIM1-CHOK1): 70 to 100% | IC50 ([1]; given as activity class): < 50 nM

Cc1ccc(Cn2ccnc2)cc1-c1ccc(NC(=O)c2c(F)cccc2F)cc1 [Compound 14, N-(5′-((1H-imidazol-1-yl)methyl)-2′-methylbiphenyl-4-yl)-2,6-difluorobenzamide]
inhibition at 0.5 µM (CRACM1/STIM1-CHOK1): 70 to 100% | IC50 ([1]; given as activity class): < 50 nM

Cc1ccc(CCc2cccnc2)cc1-c1ccc(NC(=O)c2c(F)cccc2F)cc1 [Compound 15, 2,6-difluoro-N-(2′-methyl-5′-(2-(pyridin-3-yl)ethyl)biphenyl-4-yl)benzamide]
inhibition at 0.5 µM (CRACM1/STIM1-CHOK1): 70 to 100% | IC50 ([1]; given as activity class): < 50 nM

Cc1ccc(CCc2cccnc2)cc1-c1cnc(NC(=O)c2c(F)cccc2F)cn1 [Compound 16, 2,6-difluoro-N-(5-(2-methyl-5-(2-(pyridin-3-yl)ethyl)phenyl)-pyrazin-2-yl)benzamide]
inhibition at 0.5 µM (CRACM1/STIM1-CHOK1): 50 to 70% | IC50 ([1]; given as activity class): < 50 nM

Cc1ccc(CCc2ccccn2)cc1-c1ccc(NC(=O)c2c(F)cccc2F)cc1 [Compound 17, 2,6-difluoro-N-(2′-methyl-5′-(2-(pyridin-2-yl)ethyl)biphenyl-4-yl)benzamide]
inhibition at 0.5 µM (CRACM1/STIM1-CHOK1): 70 to 100% | IC50 ([1]; given as activity class): 50 to 100 nM

Cn1cncc1-c1cnc(-c2ccc(Cl)c(-c3ccc(NC(=O)c4c(F)cccc4F)nc3)c2)s1 [Compound 18, N-(5-(2-chloro-5-(5-(1-methyl-1H-imidazol-5-yl)thiazol-2-yl)phenyl)pyridin-2-yl)-2,6-difluorobenzamide]
inhibition at 0.5 µM (CRACM1/STIM1-CHOK1): 50 to 70% | IC50 ([1]; given as activity class): 50 to 100 nM

Cc1ccc(Oc2ccccn2)cc1-c1cnc(NC(=O)c2c(F)cccc2F)cn1 [Compound 32, 2,6-difluoro-N-(5-(2-methyl-5-(pyridin-2-yloxy)phenyl)pyrazin-2-yl)benzamide]
IC50 ([1]; numeric values): 27 nM

Cc1ccc(Oc2ccccn2)cc1-c1ccc(NC(=O)c2cccc(F)c2C)nc1 [Compound 33, 3-fluoro-2-methyl-N-(5-(2-methyl-5-(pyridin-2-yloxy)phenyl)pyridin-2-yl)benzamide]
IC50 ([1]; numeric values): 90 nM

Cc1cc(Oc2cccnc2)ncc1-c1ccc(NC(=O)c2cccc(F)c2C)nc1 [Compound 34, 3-fluoro-2-methyl-N-(4′-methyl-6′-(pyridin-3-yloxy)-3,3′-bipyridin-6-yl)benzamide]
IC50 ([1]; numeric values): 14 nM

Cc1ccc(Oc2ccccn2)cc1-c1ccc(NC(=O)c2ccncc2F)nc1 [Compound 35, 3-fluoro-N-(5-(2-methyl-5-(pyridin-2-yloxy)phenyl)pyridin-2-yl)isonicotinamide]
IC50 ([1]; numeric values): 16 nM

O=C(Nc1cnc(-c2cc(Oc3ccccn3)ccc2Cl)cn1)c1c(F)cccc1F [Compound 36, N-(5-(2-chloro-5-(pyridin-2-yloxy)phenyl)pyrazin-2-yl)-2,6-difluorobenzamide]
IC50 ([1]; numeric values): 16 nM

COc1ccc(Oc2ccccn2)cc1-c1ccc(NC(=O)c2cccc(F)c2C)nc1 [Compound 38, 3-fluoro-N-(5-(2-methoxy-5-(pyridin-2-yloxy)phenyl)pyridin-2-yl)-2-methylbenzamide]
IC50 ([1]; numeric values): 21 nM

COc1ccc(Oc2ccccn2)cc1-c1cnc(NC(=O)c2c(F)cccc2F)cn1 [Compound 39, 2,6-difluoro-N-(5-(2-methoxy-5-(pyridin-2-yloxy)phenyl)pyrazin-2-yl)benzamide]
IC50 ([1]; numeric values): 25 nM

Cc1ccc(Oc2ccncc2)cc1-c1ccc(NC(=O)c2cccc(F)c2C)nc1 [Compound 40, 3-fluoro-2-methyl-N-(5-(2-methyl-5-(pyridin-4-yloxy)phenyl)pyridin-2-yl)benzamide]
IC50 ([1]; numeric values): 39 nM

Cc1c(F)cccc1C(=O)Nc1ccc(-c2cc(Oc3cccnc3)ccc2C(F)(F)F)cn1 [Compound 41, 3-fluoro-2-methyl-N-(5-(5-(pyridin-3-yloxy)-2-(trifluoromethyl)phenyl)pyridin-2-yl)benzamide]
IC50 ([1]; numeric values): 47 nM
